Drawing on patent US20240199623A1 (ILDONG PHARMACEUTICAL CO., LTD., priority 2020, published 2024), this text covers EC50 for 32 molecules.

Molecules are shown by their SMILES. A value given as a limit tells only on which side of the number the result lay.

The experiment has as its target human wild type-CFTR (Homo sapiens, UniProt P13569). In words: Cell-based YFP assay. The note with it: CHO-K1 cells expressing human wild type-CFTR and YFP-H148Q/I152L; forskolin 20 μM = 100% activity; read-out: Cell-based YFP Assay (EC50) Concentration Range. Also on record: expressed in transfected cells; host or cells: CHO-K1 (Chinese hamster ovary). Put shortly: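 CHO-K1 cells co-expressing human wild-type CFTR and YFP-H148Q/I152L halide sensor, grown 48 h at 37 °C, then in PBS. YFP quenching by I⁻ influx read at 37 °C after adding 140 mM I⁻ solution, sampled every 0.4 s for 14 s. Triplicates averaged; EC50 fitted.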

Sequence of human wild type-CFTR (P13569 whole entry): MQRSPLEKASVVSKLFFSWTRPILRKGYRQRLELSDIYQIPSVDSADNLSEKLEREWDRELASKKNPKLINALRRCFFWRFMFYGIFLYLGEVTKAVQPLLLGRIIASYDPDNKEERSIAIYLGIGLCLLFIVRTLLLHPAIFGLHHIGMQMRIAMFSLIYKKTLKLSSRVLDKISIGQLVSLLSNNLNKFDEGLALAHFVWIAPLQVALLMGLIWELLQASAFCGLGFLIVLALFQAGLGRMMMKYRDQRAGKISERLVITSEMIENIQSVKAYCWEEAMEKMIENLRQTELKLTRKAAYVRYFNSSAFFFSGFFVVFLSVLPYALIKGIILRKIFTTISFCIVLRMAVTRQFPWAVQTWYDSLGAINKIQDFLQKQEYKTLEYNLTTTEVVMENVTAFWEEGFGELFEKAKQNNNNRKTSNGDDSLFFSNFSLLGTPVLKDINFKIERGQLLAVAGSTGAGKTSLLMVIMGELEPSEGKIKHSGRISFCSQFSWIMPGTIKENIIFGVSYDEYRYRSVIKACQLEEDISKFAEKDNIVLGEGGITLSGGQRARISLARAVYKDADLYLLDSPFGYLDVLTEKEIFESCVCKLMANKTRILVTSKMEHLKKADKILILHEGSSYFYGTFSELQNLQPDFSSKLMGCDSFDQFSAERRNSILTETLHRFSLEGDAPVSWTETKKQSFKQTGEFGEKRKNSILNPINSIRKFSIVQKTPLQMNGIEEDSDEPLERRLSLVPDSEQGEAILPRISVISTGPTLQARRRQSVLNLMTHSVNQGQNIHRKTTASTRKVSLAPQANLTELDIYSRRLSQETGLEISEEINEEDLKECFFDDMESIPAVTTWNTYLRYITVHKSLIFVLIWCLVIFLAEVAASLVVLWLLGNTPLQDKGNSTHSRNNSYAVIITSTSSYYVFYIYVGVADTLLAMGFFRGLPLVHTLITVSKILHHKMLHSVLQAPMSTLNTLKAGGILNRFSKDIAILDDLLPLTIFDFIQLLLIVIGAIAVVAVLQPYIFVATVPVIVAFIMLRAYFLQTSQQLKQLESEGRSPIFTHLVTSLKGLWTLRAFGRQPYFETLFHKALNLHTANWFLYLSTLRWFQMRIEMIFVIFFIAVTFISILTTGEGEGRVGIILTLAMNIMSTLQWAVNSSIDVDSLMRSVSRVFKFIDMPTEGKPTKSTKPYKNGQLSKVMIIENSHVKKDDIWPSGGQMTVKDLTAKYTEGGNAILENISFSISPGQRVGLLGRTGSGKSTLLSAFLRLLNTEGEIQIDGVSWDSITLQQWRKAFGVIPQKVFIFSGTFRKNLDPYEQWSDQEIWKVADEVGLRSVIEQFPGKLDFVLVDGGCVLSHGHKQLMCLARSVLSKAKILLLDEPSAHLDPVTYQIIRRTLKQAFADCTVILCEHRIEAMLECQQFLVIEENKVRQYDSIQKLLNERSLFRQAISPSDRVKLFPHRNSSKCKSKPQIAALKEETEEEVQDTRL

Regarding `COc1ccc(-c2ccnc3cc(C(=O)Nc4ccc(C(=O)N5CCN(C)CC5)c(OC)c4)nn23)cc1OC` [Compound 218, 7-(3,4-dimethoxyphenyl)-N-(3-methoxy-4-(4-methylpiperazine-1-carbonyl)phenyl)pyrazolo [1,5-a]pyrimidine-2-carboxamide], the EC50 is no less than 2000 nM.
The result for `COc1ccc(-c2ccnc3cc(NC(=O)C45CCC(N6CCOCC6)(CC4)CC5)nn23)cc1OC` [Compound 288, N-(7-(3,4-dimethoxyphenyl)pyrazolo[1,5-a]pyrimidin-2-yl)-4-morpholinobicyclo[2.2.2]octane-1-carboxamide] reads no less than 2000 nM; that for `COCCOCOC(=O)[C@H]1CC[C@H](NC(=O)c2cc3nccc(-c4ccc(OC)c(OC)c4)n3n2)CC1` [Compound 328, (2-methoxyethoxy)methyl (1R,4R)-4-(7-(3,4-dimethoxyphenyl)pyrazolo [1,5-a]pyrimidine-2-carboxamido)cyclohexane-1-carboxylate], 200 to 2000 nM; that for `COc1ccc(-c2ccnc3cc(C(=O)Nc4ccc(C(=O)OCCN5CCOCC5)cn4)nn23)cc1OC` [Compound 242, 2-morpholinoethyl 6-(7-(3,4-dimethoxyphenyl)pyrazolo [1,5-a]pyrimidine-2-carboxamido)nicotinate], less than 200 nM.
The same measure for `COc1ccc(-c2ccnc3cc(C(=O)NC4(C(=O)O)CC4)nn23)cc1OC` [Compound 29, 1-(7-(3,4-dimethoxyphenyl)pyrazolo[1,5-a]pyrimidine-2-carboxamido) cyclopropane-1-carboxylic acid]: no less than 2000 nM; for `COc1ccc(-c2ccnc3cc(C(=O)N[C@H]4CC[C@H](N5CCOCC5)CC4)nn23)cc1OC` [Compound 345, 7-(3,4-dimethoxyphenyl)-N-((1R,4R)-4-morpholinocyclohexyl) pyrazolo[1,5-a]pyrimidine-2-carboxamide]: no less than 2000 nM.
The result for `CCOC(=O)CNC(=O)c1cc2nccc(-c3ccc(OC)c(OC)c3)n2n1` [Compound 20, ethyl (7-(3,4-dimethoxyphenyl)pyrazolo [1,5-a]pyrimidine-2-carbonyl) glycinate] reads 200 to 2000 nM; that for `COc1ccc(-c2ccnc3cc(C(=O)Nc4ccc(C(=O)NCCN(C(C)C)C(C)C)cc4)nn23)cc1OC` [Compound 120, N-(4-((2-(diisopropylamino)ethyl)carbamoyl)phenyl)-7-(3,4-dimethoxyphenyl) pyrazolo[1,5-a]pyrimidine-2-carboxamide], less than 200 nM.
Turning to `COc1ccc(-c2ccnc3cc(C(=O)Nc4ccc(C(=O)N[C@@H](CC(=O)O)C(=O)O)cc4)nn23)cc1OC` [Compound 88, (4-(7-(3,4-dimethoxyphenyl)pyrazolo[1,5-a]pyrimidine-2-carboxamido)benzoyl)-L-aspartic acid], the EC50 was no less than 2000 nM.
Take `COc1ccc(-c2ccnc3cc(C(=O)Nc4ccc(O)cn4)nn23)cc1OC` [Compound 327, 7-(3,4-dimethoxyphenyl)-N-(5-hydroxypyridin-2-yl)pyrazolo[1,5-a] pyrimidine-2-carboxamide]: the EC50 is less than 200 nM.
The same measure for `COc1ccc(-c2ccnc3cc(C(=O)Nc4ccc(CO)cc4)nn23)cc1OC` [Compound 292, 7-(3,4-dimethoxyphenyl)-N-(4-(hydroxymethyl)phenyl) pyrazolo[1,5-a]pyrimidine-2-carboxamide]: less than 200 nM.
The same measure for `CCOc1ccc(NC(=O)c2cc3nccc(-c4ccc(OC(F)(F)F)c(Cl)c4)n3n2)cc1` [Compound 298, 7-(3-chloro-4-(trifluoromethoxy)phenyl)-N-(4-ethoxyphenyl)pyrazolo [1,5-a]pyrimidine-2-carboxamide]: no less than 2000 nM; for `COc1ccc(-c2ccnc3cc(C(=O)Nc4ccc(C(=O)NCC(=O)O)cc4)nn23)cc1OC` [Compound 30, (4-(7-(3,4-dimethoxyphenyl)pyrazolo[1,5-a]pyrimidine-2-carboxamido)benzoyl)glycine]: no less than 2000 nM.
The result for `COc1ccc(-c2ccnc3cc(C(=O)N4CCNC(=O)C4)nn23)cc1OC` [Compound 180, 4-(7-(3,4-dimethoxyphenyl)pyrazolo[1,5-a]pyrimidine-2-carbonyl) piperazin-2-one] reads no less than 2000 nM; that for `CCOc1ccc(NC(=O)c2cc3nccc(-c4ccccc4)n3n2)cc1` [Compound 300, N-(4-ethoxyphenyl)-7-phenylpyrazolo[1,5-a]pyrimidine-2-carboxamide], no less than 2000 nM; that for `COc1ccc(-c2ccnc3cc(C(=O)Nc4ccc(C(=O)NCCCN5CCOCC5)cc4)nn23)cc1OC` [Compound 173, 7-(3,4-dimethoxyphenyl)-N-(4-((3-morpholinopropyl)carbamoyl)phenyl)pyrazolo [1,5-a]pyrimidine-2-carboxamide], less than 200 nM.
With `COC(=O)c1ccc(NC(=O)c2cc3nccc(-c4ccc(OC)c(OC)c4)n3n2)cn1` [Compound 190, methyl 5-(7-(3,4-dimethoxyphenyl)pyrazolo [1,5-a]pyrimidine-2-carboxamido)picolinate], the EC50 lay in the range of 200 to 2000 nM.
The same measure for `CCC[C@H]1CN(C(=O)c2cc3nccc(-c4ccc(OC)c(OC)c4)n3n2)CCN1C(=O)c1ccccc1` [Compound 377, (S)-(4-benzoyl-3-propylpiperazin-1-yl) (7-(3,4-dimethoxyphenyl)pyrazolo [1,5-a]pyrimidin-2-yl)methanone]: less than 200 nM.
The same measure for `COc1ccc(-c2ccnc3cc(C(=O)Nc4ccc(CN5CCOCC5)cc4)nn23)cc1OC` [Compound 244, 7-(3,4-dimethoxyphenyl)-N-(4-(morpholinomethyl)phenyl) pyrazolo[1,5-a]pyrimidine-2-carboxamide]: less than 200 nM; for `COc1ccc(-c2ccnc3cc(C(=O)N[C@H]4CC[C@H](C(=O)N5CCN(C)CC5)CC4)nn23)cc1OC` [Compound 241, 7-(3,4-dimethoxyphenyl)-N-((1r,4r)-4-(4-methylpiperazine-1-carbonyl)cyclohexyl) pyrazolo[1,5-a]pyrimidine-2-carboxamide]: no less than 2000 nM; for `COc1ccc(-c2ccnc3cc(C(=O)N4CCc5ccc(C(=O)N6CCN(C)CC6)cc5C4)nn23)cc1OC` [Compound 237, (7-(3,4-dimethoxyphenyl)pyrazolo[1,5-a]pyrimidin-2-yl)(7-(4-methylpiperazine-1-carbonyl)-3,4-dihyroisoquinolin-2(1H)-yl)methanone]: no less than 2000 nM.
The result for `CCOc1ccc(NC(=O)c2cc3nccc(-c4ccc(F)c(Cl)c4)n3n2)cc1` [Compound 316, 7-(3-chloro-4-fluorophenyl)-N-(4-ethoxyphenyl)pyrazolo [1,5-a]pyrimidine-2-carboxamide] reads no less than 2000 nM; that for `COc1ccc(-c2ccnc3cc(C(=O)Nc4ccc(F)cc4)nn23)cc1OC` [Compound 267, 7-(3,4-dimethoxyphenyl)-N-(4-fluorophenyl)pyrazolo[1,5-a]pyrimidine-2-carboxamide], less than 200 nM; that for `COc1ccc(-c2ccnc3cc(C(=O)Nc4ccc(C)cn4)nn23)cc1OC` [Compound 122, 7-(3,4-dimethoxyphenyl)-N-(5-methylpyridin-2-yl)pyrazolo[1,5-a] pyrimdine-2-carboxamide], less than 200 nM.
As for `COc1ccc(-c2ccnc3cc(C(=O)Nc4ccc(C(=O)NCCCN5CCN(C)CC5)cc4)nn23)cc1OC` [Compound 177, 7-(3,4-dimethoxyphenyl)-N-(4-((3-(4-methylpiperazin-1-yl)propyl)carbamoyl)phenyl)pyrazolo[1,5-a]pyrimidine-2-carboxamide], the EC50 is no less than 2000 nM.
The same measure for `COc1ccc(-c2ccnc3cc(C(=O)N4C[C@@H](C)N(C(=O)c5ccccc5)[C@@H](C)C4)nn23)cc1OC` [Compound 363, ((3R,5S)-4-benzoyl-3,5-dimethylpiperazin-1-yl)(7-(3,4-dimethoxyphenyl)pyrazolo[1,5-a]pyrimidin-2-yl) methanone]: less than 200 nM; for `CCCOc1ccc(NC(=O)c2cc3nccc(-c4ccc(OC)c(OC)c4)n3n2)cc1` [Compound 230, 7-(3,4-dimethoxyphenyl)-N-(4-propoxyphenyl)pyrazolo [1,5-a]pyrimidine-2-carboxamide]: less than 200 nM; for `CC[C@H]1CN(C(=O)c2cc3nccc(-c4ccc(OC)c(OC)c4)n3n2)CCN1C(=O)c1ccccc1` [Compound 375, (S)-(4-benzoyl-3-ethylpiperazin-1-yl)(7-(3,4-dimethoxyphenyl)pyrazolo [1,5-a]pyrimidin-2-yl)methanone]: less than 200 nM.
The result for `COc1ccc(-c2ccnc3cc(C(=O)NC45CC(C(=O)N6CCN(C)CC6)(C4)C5)nn23)cc1OC` [Compound 123, 7-(3,4-dimethoxyphenyl)-N-(3-(4-methylpiperazine-1-carbonyl)bicyclo[1.1.1]pentan-1-yl) pyrazolo[1,5-a]pyrimidine-2-carboxamide] reads no less than 2000 nM; that for `COc1ccc(-c2ccnc3cc(C(=O)Nc4ccc(C(=O)N[C@H](C)C(=O)O)cc4)nn23)cc1OC` [Compound 89, (4-(7-(3,4-dimethoxyphenyl)pyrazolo[1,5-a]pyrimidine-2-carboxamido)benzoyl)-D-alanine], no less than 2000 nM; that for `COc1ccc(-c2ccnc3cc(C(=O)N4CCNC5(CC5)C4)nn23)cc1OC` [Compound 361, (7-(3,4-dimethoxyphenyl)pyrazolo[1,5-a]pyrimidin-2-yl)(4,7-diazaspiro[2.5]octan-7-yl)methanone], 200 to 2000 nM.
The result for `COc1ccc(-c2ccnc3cc(C(=O)Nc4ccc(C(=O)NCCN5CCCCC5)cc4)nn23)cc1OC` [Compound 119, 7-(3,4-dimethoxyphenyl)-N-(4-((2-(piperidin-1-yl)ethyl)carbamoyl)phenyl) pyrazolo[1,5-a]pyrimidine-2-carboxamide] reads 200 to 2000 nM.
